According to patent US6306846A, “Anti-inflammatory and anti-ulcer compounds and process” (priority 1995, dated 2001):

Assays:
[1] = Anti-inflammatory test models, overall statement; assay type: in vivo, rat; conditions: using only one test model
Text: In order to test the anti-inflammatory activities of my copper coordination compounds, the following test models were employed:
(§1) (1) Carrageen in Foot Edema Model as described in Experentia, 6, pp. 469-71, "Zur Frage des Mechanis Mos der Hemmung des Bindegebswachstums durch Cortisone" (1950);
(2) Cotton Wad Granuloma Model as described in J. Pharmacol. Expt'l. Ther., 141, pp. 369-76, "Anti-inflammatory and Antipyretic Activities of Indomethacin, 9-(p-chlorobenzoyl)-5-Methoxy-2-Methyl-Indole-3-Acetic Acid" (1963); and
(3) Polyarthritis Model as described in Nature, 224, pp. 1320-21, "Effect of Prostaglandin E2 on Adjuvant Arthritis" (1969).

[2] = in vivo; conditions: for TI CFE / TI PA / selectivity ratio: ratio of lethal dose to effective dose
Text: In addition to the foregoing anti-inflammatory and anti-ulcer tests, several LD50 tests [performed in accordance with Miller et al, Proceed. of The Society of Expt'l. Medicine, 57, p.

[3] = Carrageenin Foot Edema Model; assay type: in vivo, rat (male, Sprague Dawley); conditions: hydrocortisone comparison; model not given
Protocol: as §1
The foregoing literature references were followed in the following tests unless otherwise stated and they are incorporated by reference herein. Each test model will only be briefly described. Each test model is a recognized and accepted model for testing drugs for the treatment of arthritis.
In this test model test rats were injected with carrageenin in a hind paw one hour after administration of the copper coordination compound. The carrageenin induced inflammation. The rats were male, of the Sprague Dawley variety and weighed on the average 120 grams. The copper coordination compounds were first introduced subcutaneously. The dosages were compounded as follows:
The suspending agent was Tween 80, a nonionic surfactant sold by the Atlas Powder Company. A full description of it is contained at p. 648 of Remingtons Practice of Pharmacy (11th ed., Martin & Cook, The Mack Publishing Co., Easton Pa. 1956). Generally they may be described as a complex mixture of polyoxyethylene ethers of mixed oleic esters of sorbitol anhydrides. The initial screening dosage was 25 mg of the copper coordination compound given in one injection to ten rats. Compounds which were active received further testing at 5.0 mg and lower dosages. Each dosage was administered to at least ten rats. A dose was rated active if it caused a significant decrease (P<0.05) in the circumference of the feet injected with carrageenin six hours after administration. […] As a reference standard, saline solution plus suspending agent was subcutaneously administered to each of the ten rats.

## N[C@@H](Cc1c[nH]c2ccccc12)C(=O)[O-].N[C@@H](Cc1c[nH]c2ccccc12)C(=O)[O-].[Cu+2] (racemic) [Example 16, Bis(D,L-tryptophanato(O,N)copper(II)]
[1]
  anti-inflammatory activity at the initial screening tests: no anti-inflammatory activity

## NC(Cc1c[nH]c2ccccc12)C(=O)[O-].NC(Cc1c[nH]c2ccccc12)C(=O)[O-].[Cu+2] [Example 1, Bis-L-tryptophanato(O,N)copper(II)]
[1]
  anti-inflammatory activity at the initial screening tests: no anti-inflammatory activity

## Nc1ccccc1C(=O)[O-].Nc1ccccc1C(=O)[O-].[Cu+2] [Example 3, Bisanthranilato(O,N)copper(II)]
[2]; SC
  LD50: 750 ± 106 mpk
[2]; CFE (carrageenin foot edema)
  TI CFE: 150
[2]; PA (polyarthritis)
  TI PA: 750
[3]
  % potency compared with hydrocortisone: 60%

## CC(C)c1cc(C(=O)[O-])c(O)c(C(C)C)c1.CC(C)c1cc(C(=O)[O-])c(O)c(C(C)C)c1.[Cu+2] [Example 4]
[2]; SC
  LD50: 240 ± 33 mpk
[2]; CFE (carrageenin foot edema)
  TI CFE: 48
[2]; PA (polyarthritis)
  TI PA: 240
[3]
  % potency compared with hydrocortisone: 50%

## CC(=O)Oc1ccccc1C(=O)[O-].CC(=O)Oc1ccccc1C(=O)[O-].CC(=O)Oc1ccccc1C(=O)[O-].CC(=O)Oc1ccccc1C(=O)[O-].[Cu+2].[Cu+2] [Example 5, Tetra(μ-acetylsalicylato)biscopper(II)]
[2]; SC
  LD50: 760 ± 100 mpk
[2]; CFE (carrageenin foot edema)
  TI CFE: 150
[2]; PA (polyarthritis)
  TI PA: 760
[3]
  % potency compared with hydrocortisone: 130%

## CC(=O)Oc1ccccc1C(=O)O [aspirin, acetylsalicylic acid]
[2]; in vivo
  LD50: 790 mg/kg
[2]; in vivo, po
  LD50: 1500 mg/kg
[3]
  % potency compared with hydrocortisone: 6%

## CC(=O)[O-].CC(=O)[O-].[Cu+2] [cupric acetate]
[2]; SC
  LD50: 350 mpk
[2]; CFE (carrageenin foot edema)
  TI CFE: 70
[2]; PA (polyarthritis)
  TI PA: 0
[3]
  % potency compared with hydrocortisone: 340%

## O=C(O)c1cccnc1Nc1cccc(C(F)(F)F)c1 [tpan, 2[3(trifluoro-methyl)phenyl]aminonicotinic acid]
[2]; in vivo, TI CFE, CFE (carrageenin foot edema)
  selectivity ratio: 15
[2]; in vivo, TI PA, PA (polyarthritis)
  selectivity ratio: 74
[2]; in vivo, po
  LD50: 370 ± 25 mg/kg
[3]
  % potency compared with hydrocortisone: 31%

## (3-p-chlorophenyl-3,4,5,6-tetrahydro-β-carboline-5-carboxylato)2n-(aqua)2n -copper(II)n [Example 30]
[1]
  anti-inflammatory activity at the initial screening tests: no anti-inflammatory activity

## (17-Hydroxy-3-oxo-17α-pregn-4,6-diene-21-carboxalato)2n -(aqua)2n -copper(II)n [Example 41]
[1]
  anti-inflammatory activity at the initial screening tests: no anti-inflammatory activity

## (D-penicillaminato)2n -(aqua)2n -copper(II)n [Example 8]
[1]
  anti-inflammatory activity at the initial screening tests: no anti-inflammatory activity

## [2[3(trifluoromethyl)phenyl]aminonicotinato]2n -(aqua)n -copper(II)n [Example 6]
[2]; SC
  LD50: 650 ± 80 mpk
[2]; CFE (carrageenin foot edema)
  TI CFE: 130
[2]; PA (polyarthritis)
  TI PA: 650
[3]
  % potency compared with hydrocortisone: 180%
